Test results: ChEMBL document CHEMBL4138238, “A minimalistic approach to develop new anti-apicomplexa polyamines analogs” (Eur J Med Chem, 2018)
pIC50: −log10 of the molar value. Calls of active or inactive are those of the source. No cut-off for these calls is given here.

Legend:
[1] = Selectivity index, ratio of IC50 for African green monkey Vero cells to IC50 for chloroquine-sensitive Plasmodium falciparum D6; type: toxicity; conditions: read-out: Ratio IC50
[2] = Selectivity index, ratio of IC50 for African green monkey Vero cells to IC50 for chloroquine-resistant Plasmodium falciparum W2; type: toxicity; conditions: read-out: Ratio IC50
Toxoplasma gondii [3] = experiment: Growth inhibition of GFP-fused Toxoplasma gondii RH infected in HFF at 1 uM after 3 days by fluorescence microscopic method relative to control; type: functional; conditions: for inhibition of growth at 1 µM: 72 h, read-out: GI
Plasmodium falciparum [4] = experiment: microbe, parasite or virus in culture; conditions: D6, 48 h
Plasmodium falciparum [5] = experiment: microbe, parasite or virus in culture; conditions: W2, 48 h
Vero = experiment: Cytotoxicity against African green monkey Vero cells assessed as reduction in cell viability after 48 hrs; type: cell-based; conditions: Chlorocebus sabaeus
Toxoplasma gondii [6] = experiment: Antiparasitic activity against Toxoplasma gondii RH infected in HFF treated at 4 hrs post infection measured at 5 days post infection by crystal violet staining based method; type: functional, organism-based
HFF = experiment: Cytotoxicity against HFF cells at 10 uM; type: cell-based; conditions: human

Row | SMILES | selectivity ratio [1] | selectivity ratio [2] | inhibition of growth at 1 µM (Toxoplasma gondii [3]) [%] | pIC50 (Plasmodium falciparum [4]) | pIC50 (Plasmodium falciparum [5]) | IC50 (Vero) [µg/mL] | growth inhibition (GI) (Toxoplasma gondii [3]) | pIC50 (Vero) | pIC50 (Toxoplasma gondii [6]) | Activity (HFF)
1 | COc1ccc(CNCCCCCCNCc2ccc(OC)cc2)cc1 | 2.4 | 2.5 | 25 | 5.51 | 5.47 | – | – | – | – | –
2 | COc1ccc(CNCCCCCCCCNCc2ccc(OC)c(O)c2)cc1O | > 2.38 | > 2.1 | 25 | 5.32 | 5.26 | > 4.46 | – | – | – | –
3 | COc1cc(CNCCCCCCCCNCc2ccc(OCc3ccccc3)c(OC)c2)ccc1OCc1ccccc1 | 14.6 | 10.5 | – | 6.51 | 6.37 | – | inactive | 5.34 | – | –
4 | COc1ccc(CNCCCCCCCCCCNCc2ccc(OC)c(O)c2)cc1O | > 5.41 | > 5.7 | 25 | 5.71 | 5.73 | > 4.46 | – | – | – | –
5 | COc1ccc(CNCCCCCCCCCCNCc2ccc(OC)cc2)cc1 | > 19 | > 17 | 50 | 6.22 | 6.17 | > 4.46 | – | – | – | –
6 | COc1cc(CNCCCCCCCCCCCCNCc2ccc(OCc3ccccc3)c(OC)c2)ccc1OCc1ccccc1 | > 5.67 | > 5.3 | 25 | 5.89 | 5.86 | > 4.46 | – | – | – | –
7 | COc1ccc(CNCCCCCCCCNCc2ccc(OC)cc2)cc1 | > 8.4 | > 7.3 | 25 | 5.83 | 5.77 | > 4.46 | – | – | – | –
8 | COc1cc(CNCCCCNCc2ccc(OCc3ccccc3)c(OC)c2)ccc1OCc1ccccc1 | > 27.4 | > 18.4 | 50 | 6.48 | 6.31 | > 4.46 | – | – | – | –
9 | COc1ccc(CNCCCCCCCCCCCCNCc2ccc(OC)cc2)cc1 | > 6.8 | > 5.8 | 75 | 5.80 | 5.73 | > 4.46 | – | – | – | –
10 | COc1cc(CNCCCCCCNCc2ccc(OCc3ccccc3)c(OC)c2)ccc1OCc1ccccc1 | > 31.7 | > 19 | 25 | 6.59 | 6.36 | > 4.46 | – | – | – | –
11 | c1ccc(CNCCCNCc2ccccc2)cc1 | > 7.9 | > 7.1 | 25 | 5.63 | 5.58 | > 4.46 | – | – | – | –
12 | COc1ccc(CNCCCCNCc2ccc(OC)c(O)c2)cc1O | – | – | 75 | < 5.10 | < 5.10 | > 4.46 | – | – | – | –
13 | COc1ccc(CNCCCNCc2ccc(OC)c(O)c2)cc1O | – | – | – | < 5.10 | < 5.10 | > 4.46 | – | – | – | –
14 | COc1cc(CNCCCNCc2ccc(OCc3ccccc3)c(OC)c2)ccc1OCc1ccccc1 | – | – | 100 | 6.38 | 6.33 | – | – | – | 5.82 | Non-Toxic
15 | CCc1nc(N)nc(N)c1-c1ccc(Cl)cc1 | – | – | – | – | – | – | inactive | – | – | –
16 | COc1ccc(CNCCCNCc2ccc(OC)cc2)cc1 | > 4.8 | > 2.8 | 50 | 5.50 | 5.27 | > 4.46 | – | – | – | –
17 | COc1ccc(CNCCCCCCCCCCCCNCc2ccc(OC)c(O)c2)cc1O | > 5.1 | > 3.5 | 25 | 5.71 | 5.54 | > 4.46 | – | – | – | –
18 | COc1cc(CNCCCCCCCCCCNCc2ccc(OCc3ccccc3)c(OC)c2)ccc1OCc1ccccc1 | > 6.8 | > 7.2 | 25 | 5.95 | 5.98 | > 4.46 | – | – | – | –
19 | C[C@@H]1CC[C@H]2[C@@H](C)C(=O)O[C@@H]3O[C@@]4(C)CC[C@@H]1[C@]32OO4 [ARTEMISININ] | – | – | – | 7.03 | 7.03 | – | – | – | – | –
20 | COc1ccc(CNCCCCCCNCc2ccc(OC)c(O)c2)cc1O | – | – | 50 | < 5.10 | < 5.10 | > 4.46 | – | – | – | –
21 | COc1ccc(CNCCCCNCc2ccc(OC)cc2)cc1 | > 3.2 | > 2.2 | 25 | 5.34 | 5.17 | > 4.46 | – | – | – | –
